Test results from PubChem BioAssay AID179 (DTP/NCI, 2004).
Where “and” joins values, the source holds several entries; their conditions need not be identical. Equal entries are not always repeated. Calls of active or inactive are those of the source.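 Rule for the calls: active = compounds giving half or more protection of infected cells from virus-caused growth loss, again on retest; inactive = the rest.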

System: CEM cells HIV-1 protection, formazan growth assay
Experiment: NCI AIDS Antiviral Assay
Conditions: for IC50: measured here: growth of uninfected CEM cells
Outline: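 Category rules: moderately active means at least 50% protection on retest, and confirmed active means 100% protection reproducibly. The underlying data came from a formazan growth assay in HIV-1-infected CEM cells.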

| SMILES | EC50 | IC50 | outcome |
| --- | --- | --- | --- |
| CCCN(CCCCC(NC(C)=O)C(=O)NCc1ccccc1)C(=O)N(CCCl)N=O (stereo not given) | > 79.4 µM | > 79.4 µM | – |
| NC(N)=NCCCC(NC(=O)OCCCCn1ccc(N)nc1=O)C(=O)O (stereo not given) | > 200 µM | > 200 µM | – |
| c1ccc(C2(c3cc4ccccc4[nH]3)OCCO2)nc1 | > 200 µM | > 200 µM | – |
| CC1=C(C(N)=O)C(c2ccncc2)C(C#N)C(=O)N1 (stereo not given) | > 200 µM | 145 µM | – |
| O=C1OC(CCCN2CCCCC2)(c2ccccc2)CC12CCCC2 (stereo not given) | > 200 µM | 191 µM | – |
| CC1C(n2[nH]c(=O)n(C)c2=O)c2ccccc2-n2c(=O)n(C)c(=O)n21 (stereo not given) | > 64.6 µM | > 64.6 µM | – |
| COc1ccc(NC2Oc3cc4c(cc3C(c3cccc(OC)c3OC)C2C)OCO4)cc1 (stereo not given) | > 200 µM | 1.95 µM | – |
| O=C1CSC(=Nc2ccccc2F)N1c1ccccc1F | > 107 µM | > 107 µM | – |
| c1ccc2c(N3CC3)nncc2c1 | > 200 µM | > 200 µM | – |
| CC(=O)OCC1OC(c2c(OC(C)=O)cc(C)c3c(=O)cc(/C(C(C)=O)=C(\C)O)oc23)C(OC(C)=O)C(OC(C)=O)C1OC(C)=O (stereo not given) | > 200 µM | > 200 µM | – |
| c1ccc(C(CNCCN2CCCCCC2)C2CCCCC2)cc1 (stereo not given) | > 100 µM | 11.5 µM | – |
| CCOc1ccccc1NC(=O)CCc1nnc2s/c(=C\CCc3ccccc3)c(=O)n12 | > 79.4 µM | > 79.4 µM | – |
| O=C(Nc1ccc(Cl)cc1)NS(=O)(=O)c1coc2ccccc2c1=O | > 200 µM | 93.3 µM | – |
| COc1c2c(cc3oc(C)cc(=O)c13)OC(=N)C(C(N)=O)C2CC(=O)c1ccc(N)cc1 (stereo not given) | 45.7 µM | > 100 µM | – |
| Nc1nc2ncn(CC(O)CO)c2c(=O)[nH]1 (stereo not given) | > 60.3 µM | > 60.3 µM | – |
| CNC(=O)CNC(=O)c1ccccc1SC(=O)CCCC[n+]1ccccc1 | 1.95 µM | 22.9 µM | – |
| O=C(Nc1ccccc1)c1c(O)[nH]c(=O)[nH]c1=O | > 75.9 µM | 38.9 µM | – |
| CC(CCc1nc2ccccc2o1)C1CCC2C3CC[C@@H]4C[C@H](O)CC[C@]4(C)C3CC[C@]12C (stereo not given in full) | > 50.1 µM | 17.4 µM | – |
| O=C(N/N=C/c1ccc(O)c(S(=O)(=O)O)c1)C(=O)N/N=C/c1ccc(O)c(S(=O)(=O)O)c1 | > 100 µM | > 100 µM | – |
| CCC[CH2][Sn]1([CH2]CCC)[S]CC[N]1S(=O)(=O)c1ccc(C)cc1 | > 200 µM | 0.0776 µM | – |
| O=C(O)c1cc2cccc(S(=O)(=O)O)c2cc1O | > 200 µM | > 200 µM | – |
| COc1ccc(/C=C/c2ccc3ccccc3n2)cc1OC | > 200 µM | 36.3 µM | – |

| SMILES | EC50 | IC50 | outcome |
| --- | --- | --- | --- |
| CN=C(NNc1ccc([N+](=O)[O-])cc1)P(=O)(OC(C)C)OC(C)C | > 7.24 µM | > 7.24 µM | – |
| Cn1ccoc1=Nc1ccc(Cl)c(Cl)c1 | > 200 µM | > 200 µM | – |
| O=C(CC(O)c1cccnc1)CC(O)c1cccnc1 (stereo not given) | > 200 µM | 2.82 µM | – |
| Cc1cn(C2CC(O[Si](C)(C)C(C)(C)C)C(C/[N+]([O-])=N\Nc3ccc([N+](=O)[O-])cc3)O2)c(=O)[nH]c1=O (stereo not given) | > 200 µM | 3.31 µM | – |
| C=C1C(=O)O[C@H](c2ccoc2)C[C@@H]1[C@@]1(C)CCCC2(C)C(=O)OCC21 (stereo not given in full) | > 145 µM | 95.5 µM | – |
| OCn1nnc2ccccc21 | – | – | inactive |
| Cn1c(=O)c2sc3cc4c(cc3c2c2ccccc21)sc1c(=O)n(C)c2ccccc2c14 | > 100 µM | 61.7 µM | – |
| O=C(O)C12C3CCC(O3)C1(C(=O)O)C1CCC2O1 (stereo not given) | > 200 µM | > 200 µM | – |
| Nn1nnc2ccccc21 | > 200 µM | > 200 µM | – |
| O=S(=O)(O)c1ccc2c(N=Nc3ccc(/C=C/c4ccc(N=Nc5c(O)ccc6cc(S(=O)(=O)O)ccc56)cc4S(=O)(=O)O)c(S(=O)(=O)O)c3)c(O)ccc2c1 | 7.76 µM | 97.7 µM | – |
| Clc1ccc(CN2CCCN(Cc3ccc(Cl)c(Cl)c3)S2)cc1Cl | > 61.7 µM | > 61.7 µM | – |
| CN(C)CCN1C(=O)c2ccccc2N(C)c2ccccc21 | > 200 µM | > 200 µM | – |
| CC1=NN(C(=O)c2ccc(Cl)cc2)C(=O)/C1=C/c1ccccc1O | > 20.9 µM | > 20.9 µM | – |
| COc1ccccc1/C(=N\OCCC(=O)O)c1cccs1 | – | – | inactive |
| COC(=O)C1=C2Nc3ccccc3[C@@]23CCN(Cc2ccccc2)[C@H]3CC1[C@H](O)CO (stereo not given in full) | > 148 µM | 83.2 µM | – |
| O=C1CC2(Cl)CN3c4ccccc4C(=O)CC3(Cl)CN2c2ccccc21 (stereo not given) | > 57.5 µM | > 57.5 µM | – |
| CC1(C)OCC(C2OC3OC(C)(C)OC3C2=O)O1 (stereo not given) | – | – | inactive |
| CC(/C=C/c1ccccc1Cl)=N\C(=S)NC(N)=S | > 200 µM | 20.9 µM | – |
| C=C1C[C@@H]2O[C@H]3[C@H]4[C@@H](C[C@@H](C)[C@@H](OC(C)=O)[C@H]42)[C@@H](C)CO[C@@]3(C)[C@H](OC(C)=O)C[C@H]1O | > 200 µM | 51.3 µM | – |
| O=C1CSC(c2ccc([N+](=O)[O-])cc2)N1c1ccc(-c2ccc(-n3c(-c4ccccc4)nc4ccccc4c3=O)cc2)cc1 (stereo not given) | > 200 µM | 39.8 µM | – |
| COc1cc(C2c3cc4c(cc3OC(NN=C(C)C)C2C)OCO4)cc(OC)c1O (stereo not given) | > 200 µM | 5.5 µM | – |
| N#Cc1c2n(c3c(=O)n(-c4ccccc4)c(=S)[nH]c13)CCCCC2 | > 151 µM | > 151 µM | – |

| SMILES | EC50 | IC50 | outcome |
| --- | --- | --- | --- |
| O=P1(c2ccccc2)c2ccccc2CCc2ccccc21 | > 200 µM | 95.5 µM | – |
| COC(=O)C(C(=O)c1ccccc1)C(C(=O)C(=O)Nc1ccc(OC)cc1OC)C(=O)C(=O)c1ccc(C)cc1 (stereo not given) | > 457 µM | 407 µM | – |
| CCOC(=O)c1c(SCCCN2CCCCC2)n(-c2ccccc2)c(=S)n(-c2ccccc2)c1=O | > 37.2 µM | 6.31 µM | – |
| Fc1ccc(CN2COc3c(ccc4cccnc34)C2)cc1 | > 200 µM | 34.7 µM | – |
| Cc1cc(=O)[nH]c(NN2C(Cl)C(=O)C2c2cccc(Cl)c2)n1 (stereo not given) | > 200 µM | 30.2 µM | – |
| COC=C(c1cc(Br)c(OC)c(C(=O)OC)c1)c1cc(Br)c(OC)c(C(=O)OC)c1 | > 200 µM | 13.5 µM | – |
| C1=NN2C(c3ccccc3)=NOC2C2C(c3ccccc3)=NOC12 (stereo not given) | > 200 µM | > 200 µM | – |
| COc1ccc(/C=C(/C#N)c2ccccc2)cc1 | > 200 µM | 2.09 µM | – |
| CCNC(=O)C(O)C1(O)CCC2[C@@H]3CCC4=CC(=O)C=C[C@]4(C)C3C(O)C[C@@]21C (stereo not given in full) | – | – | inactive |
| CCOC(=O)c1sc2nc(SC)nc(N3CCCCC3)c2c1N | > 100 µM | > 100 µM | – |
| CC1(C)CC(=O)C(/C=N/c2nc(-c3ccc(Br)cc3)cs2)=C(O)C1 | > 200 µM | 115 µM | – |
| CC(=O)c1cccc(NC(=O)C(=O)C(C2OC(=O)c3ccccc32)[N+](=O)[O-])c1 (stereo not given) | > 468 µM | > 468 µM | – |
| O=C(O)CCCCC[n+]1ccccc1 | > 200 µM | > 200 µM | – |
| COc1cc(OC)cc(Oc2nc3ccc(C(F)(F)F)cc3nc2-c2ccccc2)c1 | > 200 µM | > 200 µM | – |
| CC(=O)Oc1ccc2c(c1)oc1c3ccc(OC(C)=O)cc3n(C)c(=O)c21 | > 200 µM | 107 µM | – |
| COc1cccc(C2=CCCCCC2)c1OC | > 200 µM | 79.4 µM | – |
| O=C(OCC(OC(=O)c1ccccc1)C1CC(C(O)C2CCCCC2)C(=O)O1)c1ccccc1 (stereo not given) | > 200 µM | 21.9 µM | – |
| C=C(C)[C@@H]1CCC2=C[C@@H](OC2=O)[C@@H](C(=C)C)C2=CC(C(=O)O)=C(C1)O2 | > 200 µM | 91.2 µM | – |
| CC(C)[Si](OC1=C(c2ccccc2)C(NC(=O)/C=C/c2ccc([N+](=O)[O-])cc2)CCC1)(C(C)C)C(C)C (stereo not given) | > 200 µM | > 200 µM | – |
| O=c1[nH]nc2ccc(n[nH]c1=O)c1ccccc21 | > 200 µM | 7.41 µM | – |
| Cc1occc1C(=S)Nc1ccc(Cl)c(C(=O)OCC2CC2)c1 | 0.0186 µM | 53.7 µM | – |
| CCCCCCC1CC(=O)C1(Cl)Cl (stereo not given) | – | – | inactive |

| SMILES | EC50 | IC50 | outcome |
| --- | --- | --- | --- |
| CC(=O)O[C@]1(C(C)=O)CC[C@H]2[C@@H]3C[C@H](C)C4=CCCC[C@]4(C)[C@H]3CC[C@@]21C | > 100 µM | > 100 µM | – |
| c1cncc(CN2CCCC2)c1 | – | – | inactive |
| COc1ccccc1N1C(=O)CSC1=Nc1ccccc1 | > 112 µM | > 112 µM | – |
| CCOC(=O)/C=C1/Nc2cc(F)c(F)cc2NC1=O | > 200 µM | > 200 µM | – |
| N=C(N)SCCNC[C@@H](O)[C@@H](O)CNCCSC(=N)N | > 537 µM | 437 µM | – |
| COC1(C)CCC2(O)C(=O)OC3C(O)COC32O1 (stereo not given) | > 200 µM | > 200 µM | – |
| CC[C@@H](C)C(=O)O[C@@H]1CC[C@]2(CO2)C2(COC(C)=O)C(OC(C)=O)CC(C)[C@](C)(C[C@H](O)C3=CC(=O)OC3)[C@@H]12 (stereo not given in full) | – | – | inactive |
| COc1cc2c(=O)c3ccccc3oc2c(O)c1OC | > 200 µM | > 200 µM | – |
| COc1cc2c(c(OC)c1OC)-c1cccc(=O)cc1C(NC(C)=O)CC2 (stereo not given) | > 2 µM | 0.0389 µM | – |
| Cn1c(=O)c2c([nH]c(=O)n2C)n(C)c1=O | > 200 µM | > 200 µM | – |
| O=C(N=c1nc2ccccn2s1)c1ccccc1 | > 53.7 µM | > 53.7 µM | – |
| ClB1NB(Cl)NB(Cl)N1 | > 138 µM | > 138 µM | – |
| COc1cc(C(C#N)NNC(=O)Cc2ccccc2)cc(OC)c1OC (stereo not given) | > 191 µM | 93.3 µM | – |
| CCO/C=C(\C)CC1([N+](=O)[O-])C(=O)c2ccccc2C1=O | – | – | inactive |
| Cc1cc(=O)n(-c2ccccc2)c(=O)o1 | – | – | inactive |
| CC(C)(C)C=C=C(C(C)(C)C)P(=O)(O)O | > 200 µM | > 200 µM | – |
| Cn1c2c(c3ccccc31)CC(=O)N1CCCC(C1)CC21OCCO1 (stereo not given) | > 200 µM | > 200 µM | – |
| Cc1ccc(S(=O)(=O)N2C3C=CC(C3)[C@@H]2C(Cl)(Cl)Cl)cc1 (stereo not given in full) | > 200 µM | 30.9 µM | – |
| CCOC(=O)C(NC(=O)OC(C)(C)C)C(=O)OCC | > 200 µM | > 200 µM | – |
| O=C(Nc1cccc(C(=O)NCCCO)c1)/C(=C/c1ccccc1)NC(=O)c1ccccc1 | > 200 µM | > 200 µM | – |
| COC1=CC2C3Cc4c(-c5cc(OC)c(O)c6c5CC5C7C=C(OC)C(=O)CC67CCN5C)cc(OC)c(O)c4C2(CCN3C)CC1=O (stereo not given) | > 200 µM | > 200 µM and 132 µM and 117 µM | – |
